{
  "source": "patent US20060188995A1",
  "about": "“Process, composition and kit for providing a stable whole blood calibrator/control” (priority 2005, published 2006)",
  "key": {"[1]": {"test_system": "glycolysis in whole blood", "experiment": "Glucose stability of whole blood specimens with added D,L glyceraldehyde, YSI glucose concentration over weeks of storage", "format": "cell-based", "conditions": "about 2° C. to about 10° C.", "experimental": "FIG. 4 illustrates the YSI glucose concentration (mg/dL) of blood specimens containing EDTA at various final concentrations of a mixture of D,L glyceraldehydes at 0.0, 1.0, 5.0, 10.0 and 20.0 mM, obtained over 4 weeks of real time testing at about 2° C. to about 10° C.; FIG. 5 illustrates the YSI 2300 (reference analyzer) glucose concentration (mg/dL) of blood specimens treated at various concentrations of D,L glyceraldehyde over 3 weeks at about 2° C. to about 10° C., wherein the control is an untreated blood sample; In one method, a sample containing a cellular component, (i.e. RBCs, WBCs) is collected into a microfuge or vacuum tube, e.g. VACUTAINER®, (such as supplied by Becton, Dickinson and Company, Franklin Lakes, N.J.). The initial concentration of glucose in the sample can be […]. The vacuum tube may contain any appropriate anticoagulant agent known to one of ordinary skill, including oxalate, EDTA, citrate, heparin or combination thereof, to form a suspension. If used, the anticoagulant may be added together simultaneously, or sequentially, to the sample. The resulting suspension is incubated at about 2° C. to about 30° C. and allowed to undergo glycolysis until the glucose level is less than about 20 mg/dL. […]"}, "red blood cells": {"test_system": "red blood cells", "experiment": "RBC treatment with glyceraldehyde and subsequent removal; glucose recovery of RBCs recombined with plasma and glucose", "format": "cell-based, human", "conditions": "RBCs treated with 20, 35, and 50 mM for 72 hours at 2 to 10° C., washed, after 34 days, FIG. 6", "experimental": "FIG. 6 illustrates the YSI 2300 (reference analyzer) glucose concentration (mg/dL) of blood specimens at various concentrations of D,L glyceraldehyde respectively over 4 weeks at about 2° C. to about 10° C., wherein the control is untreated blood sample. Red blood cells were treated, washed and recombined with plasma and glucose. RBC Treatment w Glyceraldehyde & Subsequent Removal • 1) Employ fresh whole blood collected in standard anticoagulant (i.e. EDTA, heparin, sodium citrate) from a healthy adult population. Alternative blood sources may include bovine, avian, porcine, equine, goat, or alligator. • 2) Allow sufficient time for the natural enzymatic breakdown of glucose to occur (i.e. glycolysis). Deplete glucose concentration to less than about 20 mg/dl. Preferred storage at 2°-30°C. • 3) Separate RBC cellular component from plasma fraction via gravity settling and or centrifugation. If desired, the removed plasma fraction may be retained for reintroduction. • 4) Wash RBC cellular component with isotonic phosphate buffered saline solution (3×). Exchange diluent via centrifugation is preferred (15 minutes @ 1500 rpm (650× g). • 5) Adjust RBC concentration to approximately 4.0×10^6/mm^3±0.25×10^6/mm^3. […]"}, "[2]": {"test_system": "glycolysis in whole blood", "conditions": "final concentration about 0.9 to 20 mM; testing within 16 hours; cited from earlier work"}},
  "data": [
    {"smiles": "O=CC(O)CO", "note": "(racemic) [D,L glyceraldehyde, 2,3-dihydroxypropanal]", "values": [
      {"measurement": "loss of YSI glucose concentration", "setting": "[1]; 20.0 mM D,L glyceraldehyde in EDTA blood, at 4 weeks, FIG. 4", "result": "less than 10%"},
      {"measurement": "loss of YSI glucose concentration", "setting": "[1]; 30.0 mM D,L glyceraldehyde in EDTA blood, glucose burned down then added back, at 3 weeks, FIG. 5", "result": "less than 3.5%"},
      {"measurement": "loss in glucose recovery", "setting": "red blood cells", "result": "< 5", "unit": "%"},
      {"measurement": "glucose loss of stabilized whole blood sample", "setting": "[2]", "result": "negligible glucose loss"}
    ]}
  ]
}
